Experimental data taken from patent publication US9062066B2, “Anti-inflammatory compound having inhibitory activity against multiple tyrosine kinases and pharmaceutical composition containing same” (KOREA INSTITUTE OF SCIENCE AND TECHNOLOGY, priority 2010, dated 2015).
Where two headings read alike, the source gives them in different places.

How the values were obtained:
[1] = test system: house mite allergic substance-induced asthma in mice; test: house mite allergen asthma animal model; type: in vivo; conditions: for mucin in lung tissue (periodic Schiff staining): 20 ul intratracheal, LCB 03-0110 0.1%, Budesonide 0.03%
[2] = biological target: Hck tyrosine kinase (Homo sapiens (Human), UniProt P08631); test: in vitro Hck tyrosine kinase inhibition; type: biochemical; conditions: read-out: % inhibition against Hck
Hck tyrosine kinase, sequence (P08631 whole entry): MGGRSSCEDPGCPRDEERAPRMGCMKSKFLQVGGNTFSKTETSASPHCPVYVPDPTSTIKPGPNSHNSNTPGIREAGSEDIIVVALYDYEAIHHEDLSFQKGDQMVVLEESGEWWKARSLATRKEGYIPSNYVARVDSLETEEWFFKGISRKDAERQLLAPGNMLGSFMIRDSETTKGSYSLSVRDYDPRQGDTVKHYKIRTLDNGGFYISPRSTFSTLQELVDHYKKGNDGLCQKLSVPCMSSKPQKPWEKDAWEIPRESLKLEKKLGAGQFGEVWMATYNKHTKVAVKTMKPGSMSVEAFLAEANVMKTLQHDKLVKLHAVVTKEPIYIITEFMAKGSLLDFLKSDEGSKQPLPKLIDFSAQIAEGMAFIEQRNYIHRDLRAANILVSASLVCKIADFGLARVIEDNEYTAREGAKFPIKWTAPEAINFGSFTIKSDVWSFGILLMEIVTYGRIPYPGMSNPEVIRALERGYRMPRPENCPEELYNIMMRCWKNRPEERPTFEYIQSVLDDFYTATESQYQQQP

[3] = test system: TNF-α synthesis in J744A.1 macrophages; test: inhibition of TNF-α synthesis in LPS-activated macrophages (ELISA); type: cell-based; conditions: Macrophage, read-out: Inhibition (%) of TNF-α synthesis
[4] = test system: NO synthesis in J744A.1 macrophage; test: inhibition of nitric oxide (NO) synthesis in LPS-activated macrophages (Griess reagent); type: cell-based; conditions: read-out: Inhibition (%) of NO synthesis
[5] = biological target: DDR2 tyrosine kinase (Homo sapiens (Human), UniProt Q16832); test: in vitro DDR2 tyrosine kinase inhibition (GST-fused kinase domain); type: biochemical; conditions: read-out: % inhibition against DDR2
DDR2 tyrosine kinase, sequence (Q16832 563-849): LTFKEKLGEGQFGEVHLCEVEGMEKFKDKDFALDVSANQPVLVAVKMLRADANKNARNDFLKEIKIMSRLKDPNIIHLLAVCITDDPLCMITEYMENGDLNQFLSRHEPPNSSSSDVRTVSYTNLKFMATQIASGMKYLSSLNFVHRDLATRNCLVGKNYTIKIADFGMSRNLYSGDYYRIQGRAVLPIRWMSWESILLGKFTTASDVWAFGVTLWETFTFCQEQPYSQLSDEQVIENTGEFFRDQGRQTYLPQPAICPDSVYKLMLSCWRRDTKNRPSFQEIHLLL

[6] = test system: TNCB-induced atopic dermatitis in Nc/Nga mice; conditions: 0.1% transdermal every day for two weeks
[7] = test system: RBL-2H3 mast cells; test: cells; conditions: Rattus norvegicus, RBL-2H3, read-out: inhibition of hexosaminidase release (degranulation)
[8] = test system: oxazolone-induced skin inflammation of Balb/C mouse ears; test: mouse skin inflammatory model induced by oxazolone (ear thickness); type: in vivo
In short: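 Oxazolone was used to induce skin inflammation in the ears of 8-week-old Balb/C mice. Ear thickness was measured by caliper before induction, again at 36 h to capture inflammatory swelling, and averaged per group (n=4).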

[9] = test system: α-smooth muscle actin protein expression in skin fibroblast cells; test: inhibition of α-smooth muscle actin expression in fibroblast activated by type I collagen and TGF-β1 (western blotting); type: cell-based, Balb/C mouse; conditions: Mus musculus, read-out: Inhibition (%) of α-smooth muscle actin increase
In short: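 α-Smooth muscle actin protein was detected by western blotting with chemiluminescence on X-ray film. Levels were quantified by densitometry of the band.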

[10] = biological target: DDR1 tyrosine kinase (Homo sapiens (Human), UniProt Q08345); test: in vitro DDR1 tyrosine kinase inhibition (GST-fused kinase domain); type: biochemical; conditions: read-out: % inhibition against DDR1
DDR1 tyrosine kinase, sequence (Q08345 610-905): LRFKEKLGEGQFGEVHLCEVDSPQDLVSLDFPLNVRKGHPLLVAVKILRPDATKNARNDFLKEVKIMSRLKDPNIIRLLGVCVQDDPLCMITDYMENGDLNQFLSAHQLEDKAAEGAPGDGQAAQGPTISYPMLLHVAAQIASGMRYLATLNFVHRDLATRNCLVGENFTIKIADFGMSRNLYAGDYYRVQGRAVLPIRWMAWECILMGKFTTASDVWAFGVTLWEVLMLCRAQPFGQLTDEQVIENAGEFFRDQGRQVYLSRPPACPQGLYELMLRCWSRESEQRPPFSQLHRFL

[11] = test system: full excisional ear wounds in New Zealand white rabbits; conditions: 0.1% topical
[12] = biological target: Fgr tyrosine kinase (Homo sapiens (Human), UniProt P09769); test: in vitro Fgr tyrosine kinase inhibition; type: biochemical; conditions: read-out: % inhibition against Fgr
Fgr tyrosine kinase, sequence (P09769 whole entry): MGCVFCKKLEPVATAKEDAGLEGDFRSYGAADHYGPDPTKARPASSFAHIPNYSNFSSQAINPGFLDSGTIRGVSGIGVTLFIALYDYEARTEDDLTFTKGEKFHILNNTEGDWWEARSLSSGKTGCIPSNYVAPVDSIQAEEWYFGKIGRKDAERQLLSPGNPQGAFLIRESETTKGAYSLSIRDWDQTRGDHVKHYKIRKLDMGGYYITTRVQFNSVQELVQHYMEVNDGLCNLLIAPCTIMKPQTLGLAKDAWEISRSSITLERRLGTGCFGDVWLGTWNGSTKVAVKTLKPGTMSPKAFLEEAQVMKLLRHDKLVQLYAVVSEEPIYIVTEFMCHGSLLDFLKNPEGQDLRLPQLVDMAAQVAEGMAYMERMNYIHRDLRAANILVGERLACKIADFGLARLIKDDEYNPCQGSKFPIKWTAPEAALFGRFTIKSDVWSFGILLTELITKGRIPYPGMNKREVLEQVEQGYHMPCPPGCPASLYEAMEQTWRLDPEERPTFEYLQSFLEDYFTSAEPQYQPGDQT

[13] = biological target: Lyn tyrosine kinase (Homo sapiens (Human), UniProt P07948); test: in vitro Lyn tyrosine kinase inhibition; type: biochemical; conditions: read-out: % inhibition against Lyn
Lyn tyrosine kinase, sequence (P07948 whole entry): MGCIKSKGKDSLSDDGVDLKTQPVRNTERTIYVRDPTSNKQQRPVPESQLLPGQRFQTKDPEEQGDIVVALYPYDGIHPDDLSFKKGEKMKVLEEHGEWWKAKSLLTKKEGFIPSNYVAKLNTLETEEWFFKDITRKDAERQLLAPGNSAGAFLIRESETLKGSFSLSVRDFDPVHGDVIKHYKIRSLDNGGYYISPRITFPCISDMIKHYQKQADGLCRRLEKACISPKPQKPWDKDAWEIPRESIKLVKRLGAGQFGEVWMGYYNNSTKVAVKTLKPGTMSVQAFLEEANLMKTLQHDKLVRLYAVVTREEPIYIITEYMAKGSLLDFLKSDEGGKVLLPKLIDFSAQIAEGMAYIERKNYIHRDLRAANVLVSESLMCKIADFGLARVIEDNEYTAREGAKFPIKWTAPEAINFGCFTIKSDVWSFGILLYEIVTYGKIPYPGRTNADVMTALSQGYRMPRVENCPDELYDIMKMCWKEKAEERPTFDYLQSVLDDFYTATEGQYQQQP

[14] = test system: IL-12 synthesis in J774A.1 macrophage; test: cells; conditions: Mus musculus, J774.A1, read-out: inhibition of LPS-induced IL-12 synthesis
[15] = biological target: c-Src tyrosine kinase (Homo sapiens (Human), UniProt P12931); test: in vitro c-Src tyrosine kinase inhibition (32P-ATP, poly(D4Y)n substrate); type: biochemical; conditions: 1 uM compound; read-out: % inhibition against c-Src
c-Src tyrosine kinase, sequence (P12931 whole entry, looked up): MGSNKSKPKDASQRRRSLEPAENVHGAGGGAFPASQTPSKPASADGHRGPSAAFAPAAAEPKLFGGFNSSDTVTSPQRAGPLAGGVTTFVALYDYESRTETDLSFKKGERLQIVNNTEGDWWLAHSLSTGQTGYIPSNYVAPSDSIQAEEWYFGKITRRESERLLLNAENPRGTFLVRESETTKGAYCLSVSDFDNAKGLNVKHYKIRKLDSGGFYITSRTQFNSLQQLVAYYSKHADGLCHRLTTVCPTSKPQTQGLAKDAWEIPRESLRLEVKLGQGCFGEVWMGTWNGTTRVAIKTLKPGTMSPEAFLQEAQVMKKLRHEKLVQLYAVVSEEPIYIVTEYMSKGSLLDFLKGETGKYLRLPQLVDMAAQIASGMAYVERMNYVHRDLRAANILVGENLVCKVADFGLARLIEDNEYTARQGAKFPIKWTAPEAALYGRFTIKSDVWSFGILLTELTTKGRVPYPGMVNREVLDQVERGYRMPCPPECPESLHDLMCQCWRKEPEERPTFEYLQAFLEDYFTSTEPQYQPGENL

[16] = test system: mouse skin fibroblast; test: inhibition of migration of activated fibroblast (scratch wound); type: cell-based; conditions: 0.5 uM compound, 10 ng/ml TGF-β1, 24 hours, read-out: Inhibition (%) of migration of activated fibroblast
In short: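 Scratch wound was made on a fibroblast monolayer, then cells were kept in DMEM with 10 ng/ml TGF-β1 at 37° C for 24 hours. After formalin fixation and crystal violet staining, cells that had moved into the wound were counted at 100× in five random fields and averaged.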

[17] = 10 μM compound, 100 ng/ml LPS, 6 hours
[18] = 20 ul of 0.1% compound topical on ear, 36 hours after oxazolone
[19] = 0.5 uM compound, 10 ng/ml TGF-β1, 48 hours, type I collagen

Row | Compound | inhibition at 10 µM ([3]; 6 h) [%] | inhibition at 10 µM ([4]; 24 h) [%] | inhibition at 1 µM ([2]; 1 uM compound) [%] | inhibition at 10 µM [3, 17] [%] | inhibition at 10 µM ([4]; 10 μM compound, LPS, 24 hours) [%] | inhibition at 1 µM ([5]; 1 uM compound) [%] | inhibition at 1 µM [15] [%] | Inhibition (%) of increase of ear thickness [8, 18] [%] | inhibition at 0.5 µM [9, 19] [%] | inhibition at 1 µM ([10]; 1 uM compound) [%] | inhibition at 1 µM ([12]; 1 uM compound) [%] | inhibition at 1 µM ([13]; 1 uM compound) [%] | inhibition at 0.5 µM [16] [%] | further results
1 | CCCC1O[C@@H]2C[C@H]3[C@@H]4CCC5=CC(=O)C=C[C@]5(C)[C@H]4[C@@H](O)C[C@]3(C)[C@]2(C(=O)CO)O1 (some centres unmarked) [Budesonide, reference compound] |  |  |  |  |  |  |  |  |  |  |  |  |  | mucin in lung tissue (periodic Schiff staining) [1]: decreased the extent of the staining
2 | Oc1cccc(Nc2ccnc3cc(-c4cccc(CN5CCOCC5)c4)sc23)c1 [LCB 03-0110, 3-(2-(3-(morpholinomethyl)phenyl)thieno[3,2-b]pyridin-7-ylamino)phenol] | 64 | 97 |  |  |  |  |  |  |  |  |  |  |  | inhibition at 1 µM [2]: > 80%; inhibition at 1 µM [5]: > 90%; reduction of epidermal thickness compared to the TNCB group [6]: more than 60%; reduction of mast cell count compared to the TNCB group [6]: approximately 25%; reduction of serum IgE level compared to the TNCB group [6]: more than 20%; reduction of transepidermal water loss (TEWL) compared to the TNCB group [6]: more than 30%; inhibition at 0.3 µM [7]: ≥ 80%; Inhibition (%) of increase of ear thickness ([8]; mouse, in vivo): 72%; inhibition at 0.5 µM ([9]; 48 h): 82%; inhibition at 1 µM [10]: > 90%; wound closing rate ([11]; 150 μL per wound, every three days, versus carrier solution): closed at a higher rate; macrophages (F4/80) and activated myoblast cells (alpha smooth muscle actin) in wound tissue ([11]; three days after wounding): suppressed the activation of macrophages and myoblast cells with a statistical significance; inhibition at 1 µM [12]: > 80%; inhibition at 1 µM [13]: > 90%; mucin in lung tissue (periodic Schiff staining) [1]: suppressed mucin synthesis similarly to the positive control; eosinophil penetration into lung tissue ([1]; 20 ul of 0.1% intratracheal): suppressed eosinophil penetration into lung tissue; eotaxin in BALF ([1]; 20 ul of 0.1% intratracheal): suppression of eotaxin; inhibition at 1 µM [14]: ~100%
3 | Oc1cccc(Nc2ncnc3cc(-c4ccc(CNC5CC5)cc4)sc23)c1 [LCB 03-0040] |  |  | > 80 | 84 | 93 | > 80 | > 80 | 31 | 55 | > 80 | > 80 | > 80 | 43 | 
4 | Oc1cccc(Nc2ncnc3cc(-c4ccc(CN5CCNCC5)s4)sc23)c1 [LCB 03-0094, 3-(6-(5-(piperazin-1-ylmethyl)thiophene-2-yl)thieno[3,2-d]pyrimidin-4-ylamino)phenol] | 56 | 77 | > 60 |  |  | > 80 | > 60 | 49 | 41 | > 80 | > 60 | > 60 | 29 | 
5 | CC(C)CNCc1cccc(-c2cc3ncnc(Nc4cccc(O)c4)c3s2)c1.Cl [LCB 03-0067, 3-(6-(3-((isobutylamino)methyl)phenyl)thieno[3,2-d]pyrimidin-4-ylamino)phenol] |  |  | > 80 | 83 | 85 | > 80 | > 80 | 54 | 49 | > 80 | > 80 | > 80 | 33 | 
6 | CC(C)CNCc1ccc(-c2cc3ncnc(Nc4cccc(O)c4)c3s2)cc1 [LCB 03-0041] |  |  | > 80 | 87 | 91 | > 80 | > 80 | 29 | 66 | > 80 | > 80 | > 80 | 39 | 
7 | CN1CCN(Cc2ccc(-c3cc4ncnc(Nc5cccc(O)c5)c4s3)s2)CC1 [LCB 03-0092, 3-(6-(5-((4-methylpiperazin-1-yl)methyl)thiophene-2-yl)thieno[3,2-d]pyrimidin-4-ylamino)phenol] | 64 | 90 | > 60 |  |  | > 80 | > 60 | 47 | 37 | > 80 | > 50 | > 60 | 28 | 
8 | Oc1cccc(Nc2ncnc3cc(-c4ccc(CN5CCNCC5)o4)sc23)c1 [LCB 03-0090, 3-(6-(5-(piperazin-1-ylmethyl)furan-2-yl)thieno[3,2-d]pyrimidin-4-ylamino)phenol] | 63 | 90 | > 70 |  |  | > 70 | > 70 | 56 | 44 | > 70 | > 70 | > 70 | 26 | 
9 | Oc1cccc(Nc2ncnc3cc(-c4ccc(CN5CCOCC5)cc4)sc23)c1 [LCB 03-0032, 3-(6-(4-(morpholinomethyl)phenyl)thieno[3,2-d]pyrimidin-4-ylamino)phenol] |  |  | > 80 | 77 | 92 | > 80 | > 80 | 27 | 56 | > 80 | > 80 | > 80 | 35 | 
10 | Oc1cccc(Nc2ncnc3cc(-c4ccc(CN5CCCCC5)cc4)sc23)c1 [LCB 03-0035, 3-(6-(4-(piperidin-1-ylmethyl)phenyl)thieno[3,2-d]pyrimidin-4-ylamino)phenol] |  |  | > 80 | 65 | 91 | > 80 | > 80 | 31 | 55 | > 80 | > 80 | > 80 | 31 | 
11 | CN1CCN(Cc2ccc(-c3cc4ncnc(Nc5cccc(O)c5)c4s3)cc2)CC1 [LCB 03-0036, 3-(6-(4-((4-methylpiperazin-1-yl)methyl)phenyl)thieno[3,2-d]pyrimidin-4-ylamino)phenol] |  |  | > 80 | 61 | 81 | > 80 | > 80 | 28 | 63 | > 80 | > 80 | > 80 | 39 | 
12 | CCN(CC)Cc1ccc(-c2cc3ncnc(Nc4cccc(O)c4)c3s2)cc1 [LCB 03-0037] |  |  | > 80 | 73 | 93 | > 80 | > 80 | 33 | 55 | > 80 | > 70 | > 80 | 37 | 
